Measured values taken from patent US10039759B2, “Quinolines as FGFR kinase modulators” (priority 2011, dated 2018).
Read-outs that look alike come from different tables or passages of the source.

How the values were obtained:
FGFR2 (h) = FGFR2 (h) (Homo sapiens, UniProt P21802); experiment: FGFR2 (enzymatic assay), TR-FRET; format: biochemical; conditions: 0.4 μM ATP, 60 min; pIC50 = -log IC50 (M); average if tested multiple times; read-out: FGFR 2 pIC50 (converted)
FGFR3 (h) = FGFR3 (h) (Homo sapiens, UniProt P22607); experiment: FGFR3 (enzymatic assay), TR-FRET; format: biochemical; conditions: 60 min, pIC50 = -log IC50 (M), average if tested multiple times
FGFR4 (h) = FGFR4 (h) (Homo sapiens, UniProt P22455); experiment: FGFR4 (enzymatic assay), TR-FRET; format: biochemical; conditions: FGFR 4 pIC50, 5 μM ATP, 60 min; pIC50 = -log IC50 (M); average if tested multiple times
KDR (h) = KDR (h) (Homo sapiens, UniProt P35968); experiment: KDR (VEGFR2) (enzymatic assay), TR-FRET; format: biochemical; conditions: 3 μM ATP, 120 min; pIC50 = -log IC50 (M); average if tested multiple times; read-out: VEGFR KDR pIC50 (converted)
Procedure, shortened: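 Recombinant human KDR (150 ng/ml) phosphorylated 500 nM Btn-Flt3 with 3 μM ATP in HEPES pH 7.5/MnCl2 buffer, 1% DMSO, 120 min at room temperature; EDTA stop with Eu-anti-P-Tyr/SA-XL665 detection, TR-FRET read. IC50 and pIC50 derived from compound concentrations spanning 10 μM to 0.1 nM.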

[1] = biological target: T1, Ba/F3-FGFR1-transfected cells (Homo sapiens, UniProt P11362, cells depend on it, form not given); experiment: Ba/F3-FGFR1 (minus IL3 or plus IL3) cellular proliferation assay, Alamar Blue; format: cell-based; conditions: minus IL3, 24 hours
T1 construct: other: minus IL3; 24 hours, Alamar Blue
Procedure, shortened: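 Ba/F3-FGFR1 cells (20000/well) were treated with compound (10 μM–0.1 nM) for 24 h at 37 °C. Alamar Blue was then added for 4 h, with fluorescence read at ex 540/em 590 nm to give IC50/pIC50. A counterscreen was run with 10 ng/ml murine IL3.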

[2] = biological target: T2, Ba/F3-FGFR3-transfected cells (Homo sapiens, UniProt P22607, cells depend on it, form not given); experiment: Ba/F3-FGFR3 (minus IL3 or plus IL3) cellular proliferation assay, Alamar Blue; format: cell-based; conditions: minus IL3; 24 hours, Alamar Blue
T2 construct: BAF3-FGFR3 (MIN IL3 Alamar Blue- pIC50); other: minus IL3; 24 hours, Alamar Blue
Procedure, shortened: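 Ba/F3-FGFR3 cells (20000 per well) in phenol red-free RPMI-1640 with 10% FBS were exposed to compound (10 μM to 0.1 nM) for 24 h at 37° C. Alamar Blue was then added for 4 h and fluorescence read (ex 540, em 590 nm) to give IC50/pIC50; the counterscreen was run with 10 ng/ml murine IL3.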

[3] = biological target: T3, Ba/F3-KDR-transfected cells (Homo sapiens, UniProt P35968, cells depend on it, form not given); experiment: Ba/F3-KDR (minus IL3 or plus IL3) cellular proliferation assay, Alamar Blue; format: cell-based; conditions: minus IL3; 24 hours, Alamar Blue
T3 construct: BAF3-KDR (MIN IL3 Alamar Blue pIC50); other: minus IL3; 24 hours, Alamar Blue
Procedure, shortened: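 Ba/F3-KDR cells, 20000 per well, exposed to compounds (10 μM to 0.1 nM) for 24 h at 37°C in RPMI/10% FBS, then Alamar Blue for 4 h; fluorescence ex 540/em 590 nm gives IC50 and pIC50. Counterscreen run with 10 ng/ml murine IL3.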

[4] = biological target: Ba/F3-FGFR4-transfected cells (Homo sapiens, UniProt P22455); experiment: Ba/F3-FGFR4 cellular proliferation assay, Alamar Blue; format: cell-based; conditions: 24 hours
Procedure, shortened: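 Ba/F3 cells transfected with human FGFR4, 20000 per well in phenol red-free RPMI-1640 with 10% FBS, exposed to compound (10 μM to 0.1 nM) for 24 h at 37 °C. Viability by Alamar Blue (resazurin), 4 h, fluorescence ex 540/em 590 nm; IC50 and pIC50 calculated.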

[5] = 25 μM ATP, read-out: hFGFR 3 pIC50 (converted)

Sequence of Ba/F3-FGFR4-transfected cells (P22455 whole entry, change not shown): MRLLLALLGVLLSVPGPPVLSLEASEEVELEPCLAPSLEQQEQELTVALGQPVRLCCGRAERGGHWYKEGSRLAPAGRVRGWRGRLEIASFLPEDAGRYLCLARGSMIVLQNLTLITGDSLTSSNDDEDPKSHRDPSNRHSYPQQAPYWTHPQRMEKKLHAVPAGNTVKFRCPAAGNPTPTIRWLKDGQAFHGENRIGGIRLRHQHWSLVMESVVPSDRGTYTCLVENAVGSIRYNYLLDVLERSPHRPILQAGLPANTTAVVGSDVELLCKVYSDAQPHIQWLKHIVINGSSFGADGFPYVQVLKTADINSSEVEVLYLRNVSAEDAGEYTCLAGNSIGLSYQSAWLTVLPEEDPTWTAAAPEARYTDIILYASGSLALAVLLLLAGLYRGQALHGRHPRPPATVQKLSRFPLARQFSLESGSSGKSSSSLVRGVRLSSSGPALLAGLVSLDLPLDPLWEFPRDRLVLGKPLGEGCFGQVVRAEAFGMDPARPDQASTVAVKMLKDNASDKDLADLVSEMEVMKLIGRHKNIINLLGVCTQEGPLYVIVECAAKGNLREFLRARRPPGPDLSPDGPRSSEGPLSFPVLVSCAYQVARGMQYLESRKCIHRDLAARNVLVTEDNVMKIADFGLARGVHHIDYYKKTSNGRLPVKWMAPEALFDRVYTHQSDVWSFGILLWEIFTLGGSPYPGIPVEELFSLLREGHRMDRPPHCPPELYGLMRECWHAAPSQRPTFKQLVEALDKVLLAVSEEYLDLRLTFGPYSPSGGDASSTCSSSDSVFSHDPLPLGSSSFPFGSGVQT
Sequence of KDR (h) (P35968 20-1356): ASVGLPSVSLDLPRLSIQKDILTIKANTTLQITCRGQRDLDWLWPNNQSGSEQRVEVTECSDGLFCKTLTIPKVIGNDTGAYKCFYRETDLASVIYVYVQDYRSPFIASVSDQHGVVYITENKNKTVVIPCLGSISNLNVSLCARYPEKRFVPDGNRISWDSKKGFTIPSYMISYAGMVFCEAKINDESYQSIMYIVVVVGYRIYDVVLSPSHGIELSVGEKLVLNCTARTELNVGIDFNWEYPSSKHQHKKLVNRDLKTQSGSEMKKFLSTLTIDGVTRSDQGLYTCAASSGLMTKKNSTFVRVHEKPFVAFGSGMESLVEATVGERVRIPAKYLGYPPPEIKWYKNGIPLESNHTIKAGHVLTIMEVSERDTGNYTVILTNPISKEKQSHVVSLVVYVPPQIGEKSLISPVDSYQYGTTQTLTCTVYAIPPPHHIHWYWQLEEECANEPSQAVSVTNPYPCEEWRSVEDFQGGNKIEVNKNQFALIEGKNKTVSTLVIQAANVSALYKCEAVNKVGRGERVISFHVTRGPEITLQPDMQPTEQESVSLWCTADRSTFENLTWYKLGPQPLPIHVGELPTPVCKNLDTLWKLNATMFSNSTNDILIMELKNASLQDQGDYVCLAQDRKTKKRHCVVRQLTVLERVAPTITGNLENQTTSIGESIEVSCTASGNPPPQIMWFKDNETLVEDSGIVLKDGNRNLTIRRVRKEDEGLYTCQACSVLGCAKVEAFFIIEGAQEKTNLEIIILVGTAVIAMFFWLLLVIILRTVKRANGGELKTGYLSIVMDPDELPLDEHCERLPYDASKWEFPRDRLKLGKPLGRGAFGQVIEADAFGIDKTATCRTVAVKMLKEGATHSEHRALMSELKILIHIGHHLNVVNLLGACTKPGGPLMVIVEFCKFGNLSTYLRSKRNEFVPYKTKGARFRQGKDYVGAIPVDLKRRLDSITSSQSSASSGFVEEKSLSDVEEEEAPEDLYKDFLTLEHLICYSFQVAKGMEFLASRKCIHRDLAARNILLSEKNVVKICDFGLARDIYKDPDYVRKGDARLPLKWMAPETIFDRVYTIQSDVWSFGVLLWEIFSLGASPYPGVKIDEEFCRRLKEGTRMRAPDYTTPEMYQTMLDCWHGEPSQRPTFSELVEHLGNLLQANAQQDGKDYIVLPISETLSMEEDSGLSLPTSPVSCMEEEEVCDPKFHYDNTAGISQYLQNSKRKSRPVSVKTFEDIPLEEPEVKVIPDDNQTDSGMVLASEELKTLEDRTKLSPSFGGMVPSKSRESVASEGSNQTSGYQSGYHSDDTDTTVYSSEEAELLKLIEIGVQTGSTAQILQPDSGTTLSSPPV
T2 sequence (P22607 whole entry, change not shown): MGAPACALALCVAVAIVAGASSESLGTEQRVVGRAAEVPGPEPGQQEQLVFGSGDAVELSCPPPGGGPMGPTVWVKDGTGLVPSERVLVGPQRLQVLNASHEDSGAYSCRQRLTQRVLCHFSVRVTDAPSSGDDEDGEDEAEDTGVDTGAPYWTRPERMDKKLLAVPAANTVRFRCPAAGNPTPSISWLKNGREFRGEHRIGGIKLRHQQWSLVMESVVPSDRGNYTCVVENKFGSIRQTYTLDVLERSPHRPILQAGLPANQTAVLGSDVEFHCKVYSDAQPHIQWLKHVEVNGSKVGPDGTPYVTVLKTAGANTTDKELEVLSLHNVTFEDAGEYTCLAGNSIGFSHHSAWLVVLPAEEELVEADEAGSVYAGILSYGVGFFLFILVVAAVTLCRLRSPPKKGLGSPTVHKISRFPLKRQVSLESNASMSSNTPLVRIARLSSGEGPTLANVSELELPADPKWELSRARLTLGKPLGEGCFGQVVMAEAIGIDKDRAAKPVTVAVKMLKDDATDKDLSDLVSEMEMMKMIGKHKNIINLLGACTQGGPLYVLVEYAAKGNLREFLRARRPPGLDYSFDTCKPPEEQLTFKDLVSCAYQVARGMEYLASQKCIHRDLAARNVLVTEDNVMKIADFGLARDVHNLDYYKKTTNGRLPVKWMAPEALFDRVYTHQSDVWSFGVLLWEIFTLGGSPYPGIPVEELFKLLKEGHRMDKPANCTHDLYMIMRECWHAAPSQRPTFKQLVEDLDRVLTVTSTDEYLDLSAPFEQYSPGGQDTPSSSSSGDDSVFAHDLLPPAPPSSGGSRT
Sequence of FGFR3 (h) (P22607 23-806): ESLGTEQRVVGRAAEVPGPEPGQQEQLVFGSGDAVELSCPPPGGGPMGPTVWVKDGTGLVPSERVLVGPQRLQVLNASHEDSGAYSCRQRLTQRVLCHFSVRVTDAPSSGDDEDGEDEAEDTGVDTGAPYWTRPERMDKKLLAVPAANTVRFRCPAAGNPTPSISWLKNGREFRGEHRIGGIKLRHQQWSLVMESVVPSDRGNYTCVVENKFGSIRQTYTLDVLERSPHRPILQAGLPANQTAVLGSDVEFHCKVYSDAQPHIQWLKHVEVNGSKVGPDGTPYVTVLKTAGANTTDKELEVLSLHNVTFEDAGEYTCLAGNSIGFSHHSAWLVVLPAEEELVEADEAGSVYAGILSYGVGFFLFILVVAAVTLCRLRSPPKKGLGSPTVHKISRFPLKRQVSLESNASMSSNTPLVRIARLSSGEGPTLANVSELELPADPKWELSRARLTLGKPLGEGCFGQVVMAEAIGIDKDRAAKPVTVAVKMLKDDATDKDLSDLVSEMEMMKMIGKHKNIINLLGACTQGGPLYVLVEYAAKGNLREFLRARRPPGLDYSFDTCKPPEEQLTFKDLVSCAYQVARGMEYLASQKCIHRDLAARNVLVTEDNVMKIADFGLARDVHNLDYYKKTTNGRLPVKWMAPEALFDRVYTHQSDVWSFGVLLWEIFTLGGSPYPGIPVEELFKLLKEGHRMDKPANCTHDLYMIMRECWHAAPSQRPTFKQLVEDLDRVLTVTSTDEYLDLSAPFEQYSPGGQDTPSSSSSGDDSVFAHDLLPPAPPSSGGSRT
Sequence of FGFR2 (h) (P21802 22-821): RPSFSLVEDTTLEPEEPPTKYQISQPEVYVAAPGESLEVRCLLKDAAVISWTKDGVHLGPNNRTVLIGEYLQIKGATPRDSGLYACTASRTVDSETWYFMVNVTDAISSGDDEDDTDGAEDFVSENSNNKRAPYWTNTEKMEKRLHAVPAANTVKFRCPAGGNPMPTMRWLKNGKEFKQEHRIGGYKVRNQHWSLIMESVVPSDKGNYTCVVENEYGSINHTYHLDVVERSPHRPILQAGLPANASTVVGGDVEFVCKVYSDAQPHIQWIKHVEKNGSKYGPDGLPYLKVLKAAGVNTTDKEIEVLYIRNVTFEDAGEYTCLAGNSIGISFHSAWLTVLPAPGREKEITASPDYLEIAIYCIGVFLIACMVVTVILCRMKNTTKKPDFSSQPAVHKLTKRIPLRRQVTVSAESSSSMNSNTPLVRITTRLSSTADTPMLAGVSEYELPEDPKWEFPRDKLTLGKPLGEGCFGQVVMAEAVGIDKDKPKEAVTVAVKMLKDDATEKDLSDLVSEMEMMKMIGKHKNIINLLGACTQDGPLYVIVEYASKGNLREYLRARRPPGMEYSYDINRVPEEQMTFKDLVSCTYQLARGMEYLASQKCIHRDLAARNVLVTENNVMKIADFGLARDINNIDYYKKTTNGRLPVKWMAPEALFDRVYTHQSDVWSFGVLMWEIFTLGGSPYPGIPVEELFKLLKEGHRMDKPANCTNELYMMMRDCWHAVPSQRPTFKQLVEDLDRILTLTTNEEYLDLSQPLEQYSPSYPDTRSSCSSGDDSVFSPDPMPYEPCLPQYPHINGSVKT

Row | Structure (SMILES) | IC50 (FGFR2 (h)) | IC50 (FGFR3 (h); [5]) | IC50 (FGFR4 (h)) | IC50 (KDR (h)) | BAF3-FGFR1 (MIN IL3 pIC50) [1] | BAF3-FGFR3 (MIN IL3 Alamar Blue- pIC50) [2] | BAF3-KDR (MIN IL3 Alamar Blue pIC50) [3] | BAF3-FGFR 4 (pIC50) [4] | IC50 (FGFR3 (h); hFGFR 3 pIC50, 25 μM ATP)
1 | COc1cc(OC)c(F)c(N(CC#Cc2ncccc2OC)c2ccc3ncc(-c4cnn(C)c4)cc3c2)c1 [Compound 26] | 1.05e-08 M | – | 1.26e-08 M | 4.27e-07 M | 7.95 | 8.17 | 5.11 | 7.77 | 4.9e-09 M
2 | COc1cc(OC)c(F)c(N(CCNC(C)C)c2ccc3ncc(-c4cnn(C)c4)cc3c2)c1 [Compound 2] | 3.24e-09 M | – | 3.98e-09 M | 2.57e-08 M | 8.3 | 7.86 | 6.18 | 7.83 | 3.89e-09 M
3 | COc1cc(OC)cc(N(Cc2ncccn2)c2ccc3ncc(-c4cnn(C)c4)cc3c2)c1 [Compound 8] | 2e-08 M | 3.24e-08 M | 1.17e-07 M | 8.13e-07 M | 6.27 | 6.14 | <5 | 5.64 | –
4 | COc1cc(OC)cc(N(CCCO)c2ccc3ncc(-c4cnn(C)c4)cc3c2)c1 [Compound 4] | 1.35e-08 M | 5.89e-09 M | 3.09e-08 M | 1.38e-07 M | 6.26 | 6.17 | 5.45 | 5.87 | –
5 | COc1cc(OC)cc(N(CCO)c2ccc3ncc(-c4cnn(C)c4)cc3c2)c1 [Compound 3] | 1.48e-08 M | 4.17e-09 M | 3.8e-08 M | 9.12e-08 M | 6.31 | 6.33 | 5.65 | 6.11 | –

Now from value to compound, other results behind:

Row | IC50 (FGFR2 (h)) | IC50 (FGFR3 (h); [5]) | IC50 (FGFR4 (h)) | IC50 (KDR (h)) | BAF3-FGFR1 (MIN IL3 pIC50) [1] | BAF3-FGFR3 (MIN IL3 Alamar Blue- pIC50) [2] | BAF3-KDR (MIN IL3 Alamar Blue pIC50) [3] | BAF3-FGFR 4 (pIC50) [4] | Structure (SMILES) | IC50 (FGFR3 (h); hFGFR 3 pIC50, 25 μM ATP)
6 | 1.2e-07 M | 5.89e-08 M | 2.75e-07 M | > 1e-06 M | 7.35 | 7.63 | <5 | 6.98 | COc1cc(OC)cc(N(CC#Cc2ncccc2OC)c2ccc3ncc(-c4cnn(C)c4)cc3c2)c1 [Compound 17] | –
7 | 2.29e-09 M | 1.05e-09 M | 4.47e-09 M | 4.57e-07 M | 6.75 | ~6.77 | <5 | 6.16 | COc1cc(OC)cc(N(Cc2ncc[nH]2)c2ccc3ncc(-c4ccncc4)cc3c2)c1 [Compound 57] | –
8 | 5.25e-09 M | 3.47e-09 M | 7.41e-09 M | 9.55e-08 M | 7.2 | ~6.95 | 5.45 | 6.7 | COc1cc(OC)cc(N(CCNC(C)C)c2ccc3ncc(-c4cnn(CCS(C)(=O)=O)c4)cc3c2)c1 [Compound 14] | –
9 | 3.02e-09 M | 1.74e-09 M | 7.41e-09 M | 8.51e-07 M | 6.36 | 6.50 | <5 | 6.02 | COc1cc(OC)cc(N(Cc2ncc[nH]2)c2ccc3ncc(-c4cccnc4)cc3c2)c1 [Compound 59] | –
